# What was measured:
# Assay in all cases: relative viability (nuclei count vs DMSO), 5 days (fraction); higher = more cells survive
# [1] = test system: 201T
# Procedure, shortened: (§1)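 Values are medians from duplicate plates. Each reflects relative viability, defined as the nuclei count of treated wells over that of vehicle wells. Lung cancer cell lines in 1536-well plates were pin-tool dosed one day after seeding with one drug alone or with a fixed anchor-drug dose plus five library-drug doses (not always all listed) in √10 steps, then fixed, stained and imaged at 4× after 5 days.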
# [2] = test system: BEN
# Procedure, shortened: as §1
# [3] = test system: COR-L 105
# Procedure, shortened: as §1
# [4] = test system: EKVX
# Procedure, shortened: as §1
# [5] = test system: EPLC-272H
# Procedure, shortened: as §1
# [6] = test system: H3255
# Procedure, shortened: as §1
# [7] = test system: HCC-44
# Procedure, shortened: as §1
# [8] = test system: HCC-827
# Procedure, shortened: as §1
# [9] = test system: HOP-62
# Procedure, shortened: as §1
# [10] = test system: LCLC-97TM1
# Procedure, shortened: as §1
# [11] = test system: LOU-NH91
# Procedure, shortened: as §1
# [12] = test system: LU99A
# Procedure, shortened: as §1
# [13] = test system: NCI-H1437
# Procedure, shortened: as §1
# [14] = test system: NCI-H1666
# Procedure, shortened: as §1
# [15] = test system: NCI-H1975
# Procedure, shortened: as §1
# [16] = test system: NCI-H2085
# Procedure, shortened: as §1
# [17] = test system: NCI-H2087
# Procedure, shortened: as §1
# [18] = test system: NCI-H647
# Procedure, shortened: as §1
# [19] = test system: PC-3 [JPC-3]
# Procedure, shortened: as §1
# [20] = test system: SW 1573
# Procedure, shortened: as §1
compound,measurement,setting,value
O=C(O)c1ccc(-c2c[nH]c3ncc(-c4ccccc4)cc23)cc1C1CCCC1 + CC(C)C[C@H](NC(=O)[C@H](Cc1ccccc1)NC(=O)c1cnccn1)B(O)O [Bortezomib] (partner 0.002 µM),relative viability,[1]; first compound 0.04 µM,1.08
same,relative viability,[1]; first compound 0.1265 µM,1.08
same,relative viability,[1]; first compound 0.4 µM,1.12
same,relative viability,[1]; first compound 1.265 µM,1.02
same,relative viability,[2]; first compound 0.04 µM,0.721
same,relative viability,[2]; first compound 0.1265 µM,0.778
same,relative viability,[2]; first compound 0.4 µM,0.907
same,relative viability,[2]; first compound 1.265 µM,0.796
same,relative viability,[3]; first compound 0.04 µM,0.775
same,relative viability,[3]; first compound 0.1265 µM,0.78
same,relative viability,[3]; first compound 0.4 µM,0.788
same,relative viability,[3]; first compound 1.265 µM,0.819
same,relative viability,[4]; first compound 0.04 µM,1.01
same,relative viability,[4]; first compound 0.1265 µM,0.873
same,relative viability,[4]; first compound 0.4 µM,1.03
same,relative viability,[4]; first compound 1.265 µM,0.728
same,relative viability,[5]; first compound 0.04 µM,0.755
same,relative viability,[5]; first compound 0.1265 µM,1.13
same,relative viability,[5]; first compound 0.4 µM,0.931
same,relative viability,[5]; first compound 1.265 µM,1.01
same,relative viability,[6]; first compound 0.04 µM,1.12
same,relative viability,[6]; first compound 0.1265 µM,0.972
same,relative viability,[6]; first compound 0.4 µM,0.833
same,relative viability,[6]; first compound 1.265 µM,0.732
same,relative viability,[7]; first compound 0.04 µM,0.945
same,relative viability,[7]; first compound 0.1265 µM,0.866
same,relative viability,[7]; first compound 0.4 µM,0.886
same,relative viability,[7]; first compound 1.265 µM,0.908
same,relative viability,[8]; first compound 0.04 µM,0.982
same,relative viability,[8]; first compound 0.1265 µM,1.18
same,relative viability,[8]; first compound 0.4 µM,1.02
same,relative viability,[8]; first compound 1.265 µM,0.884
same,relative viability,[9]; first compound 0.04 µM,1.01
same,relative viability,[9]; first compound 0.1265 µM,0.725
same,relative viability,[9]; first compound 0.4 µM,0.93
same,relative viability,[9]; first compound 1.265 µM,0.886
same,relative viability,[10]; first compound 0.04 µM,0.835
same,relative viability,[10]; first compound 0.1265 µM,1.03
same,relative viability,[10]; first compound 0.4 µM,0.763
same,relative viability,[10]; first compound 1.265 µM,0.403
same,relative viability,[11]; first compound 0.04 µM,0.484
same,relative viability,[11]; first compound 0.1265 µM,0.558
same,relative viability,[11]; first compound 0.4 µM,0.449
same,relative viability,[11]; first compound 1.265 µM,0.396
same,relative viability,[12]; first compound 0.04 µM,1.19
same,relative viability,[12]; first compound 0.1265 µM,1.08
same,relative viability,[12]; first compound 0.4 µM,1.06
same,relative viability,[12]; first compound 1.265 µM,0.816
same,relative viability,[13]; first compound 0.04 µM,0.523
same,relative viability,[13]; first compound 0.1265 µM,0.683
same,relative viability,[13]; first compound 0.4 µM,0.446
same,relative viability,[13]; first compound 1.265 µM,0.238
same,relative viability,[14]; first compound 0.04 µM,0.86
same,relative viability,[14]; first compound 0.1265 µM,0.813
same,relative viability,[14]; first compound 0.4 µM,0.739
same,relative viability,[14]; first compound 1.265 µM,0.304
same,relative viability,[15]; first compound 0.04 µM,0.344
same,relative viability,[15]; first compound 0.1265 µM,0.391
same,relative viability,[15]; first compound 0.4 µM,0.335
same,relative viability,[15]; first compound 1.265 µM,0.195
same,relative viability,[16]; first compound 0.04 µM,1.08
same,relative viability,[16]; first compound 0.1265 µM,1.07
same,relative viability,[16]; first compound 0.4 µM,1.02
same,relative viability,[16]; first compound 1.265 µM,0.896
same,relative viability,[17]; first compound 0.04 µM,0.963
same,relative viability,[17]; first compound 0.1265 µM,0.902
same,relative viability,[17]; first compound 0.4 µM,0.715
same,relative viability,[17]; first compound 1.265 µM,0.565
same,relative viability,[18]; first compound 0.04 µM,0.896
same,relative viability,[18]; first compound 0.1265 µM,1.19
same,relative viability,[18]; first compound 0.4 µM,1.3
same,relative viability,[18]; first compound 1.265 µM,0.772
same,relative viability,[19]; first compound 0.04 µM,0.832
same,relative viability,[19]; first compound 0.1265 µM,0.921
same,relative viability,[19]; first compound 0.4 µM,0.9
same,relative viability,[19]; first compound 1.265 µM,0.759
same,relative viability,[20]; first compound 0.04 µM,1.11
same,relative viability,[20]; first compound 0.1265 µM,1.09
same,relative viability,[20]; first compound 0.4 µM,0.99
same,relative viability,[20]; first compound 1.265 µM,0.722
NC(=O)Nc1cc(-c2cccc(F)c2)sc1C(=O)N[C@H]1CCCNC1 [AZD7762] + CC(C)C[C@H](NC(=O)[C@H](Cc1ccccc1)NC(=O)c1cnccn1)B(O)O [Bortezomib] (partner 0.002 µM),relative viability,[1]; first compound 0.01 µM,1.09
same,relative viability,[1]; first compound 0.03162 µM,1.12
same,relative viability,[1]; first compound 0.1 µM,1.12
same,relative viability,[1]; first compound 0.3162 µM,1.12
same,relative viability,[1]; first compound 1 µM,1.19
same,relative viability,[2]; first compound 0.01 µM,0.902
same,relative viability,[2]; first compound 0.03162 µM,0.758
same,relative viability,[2]; first compound 0.1 µM,0.888
same,relative viability,[2]; first compound 0.3162 µM,0.821
same,relative viability,[2]; first compound 1 µM,0.636
same,relative viability,[3]; first compound 0.01 µM,0.904
same,relative viability,[3]; first compound 0.03162 µM,0.803
same,relative viability,[3]; first compound 0.1 µM,0.836
same,relative viability,[3]; first compound 0.3162 µM,0.389
same,relative viability,[3]; first compound 1 µM,0.356
same,relative viability,[4]; first compound 0.01 µM,0.996
same,relative viability,[4]; first compound 0.03162 µM,1.04
same,relative viability,[4]; first compound 0.1 µM,0.974
same,relative viability,[4]; first compound 0.3162 µM,0.912
same,relative viability,[4]; first compound 1 µM,0.688
same,relative viability,[5]; first compound 0.01 µM,0.81
same,relative viability,[5]; first compound 0.03162 µM,1.01
same,relative viability,[5]; first compound 0.1 µM,1.02
same,relative viability,[5]; first compound 0.3162 µM,0.828
same,relative viability,[5]; first compound 1 µM,0.992
same,relative viability,[6]; first compound 0.01 µM,0.818
same,relative viability,[6]; first compound 0.03162 µM,0.852
same,relative viability,[6]; first compound 0.1 µM,0.734
same,relative viability,[6]; first compound 0.3162 µM,0.609
same,relative viability,[6]; first compound 1 µM,0.59
same,relative viability,[7]; first compound 0.01 µM,0.797
same,relative viability,[7]; first compound 0.03162 µM,0.804
same,relative viability,[7]; first compound 0.1 µM,0.919
same,relative viability,[7]; first compound 0.3162 µM,0.705
same,relative viability,[7]; first compound 1 µM,0.862
same,relative viability,[8]; first compound 0.01 µM,1.02
same,relative viability,[8]; first compound 0.03162 µM,1.05
same,relative viability,[8]; first compound 0.1 µM,1.16
same,relative viability,[8]; first compound 0.3162 µM,1.08
same,relative viability,[8]; first compound 1 µM,0.929
same,relative viability,[9]; first compound 0.01 µM,0.817
same,relative viability,[9]; first compound 0.03162 µM,0.605
same,relative viability,[9]; first compound 0.1 µM,0.491
same,relative viability,[9]; first compound 0.3162 µM,0.725
same,relative viability,[9]; first compound 1 µM,0.43
same,relative viability,[10]; first compound 0.01 µM,0.767
same,relative viability,[10]; first compound 0.03162 µM,0.822
same,relative viability,[10]; first compound 0.1 µM,0.737
same,relative viability,[10]; first compound 0.3162 µM,0.335
same,relative viability,[10]; first compound 1 µM,0.634
same,relative viability,[11]; first compound 0.01 µM,0.558
same,relative viability,[11]; first compound 0.03162 µM,0.462
same,relative viability,[11]; first compound 0.1 µM,0.487
same,relative viability,[11]; first compound 0.3162 µM,0.548
same,relative viability,[11]; first compound 1 µM,0.522
same,relative viability,[12]; first compound 0.01 µM,1.09
same,relative viability,[12]; first compound 0.03162 µM,1.24
same,relative viability,[12]; first compound 0.1 µM,1.25
same,relative viability,[12]; first compound 0.3162 µM,0.867
same,relative viability,[12]; first compound 1 µM,0.402
same,relative viability,[13]; first compound 0.01 µM,0.407
same,relative viability,[13]; first compound 0.03162 µM,0.4
same,relative viability,[13]; first compound 0.1 µM,0.56
same,relative viability,[13]; first compound 0.3162 µM,0.58
same,relative viability,[13]; first compound 1 µM,0.433
same,relative viability,[14]; first compound 0.01 µM,0.906
same,relative viability,[14]; first compound 0.03162 µM,0.906
same,relative viability,[14]; first compound 0.1 µM,1.13
same,relative viability,[14]; first compound 0.3162 µM,0.848
same,relative viability,[14]; first compound 1 µM,0.688
same,relative viability,[15]; first compound 0.01 µM,0.468
same,relative viability,[15]; first compound 0.03162 µM,0.44
same,relative viability,[15]; first compound 0.1 µM,0.417
same,relative viability,[15]; first compound 0.3162 µM,0.399
same,relative viability,[15]; first compound 1 µM,0.272
same,relative viability,[16]; first compound 0.01 µM,1.11
same,relative viability,[16]; first compound 0.03162 µM,1.14
same,relative viability,[16]; first compound 0.1 µM,1.11
same,relative viability,[16]; first compound 0.3162 µM,1.14
same,relative viability,[16]; first compound 1 µM,0.887
same,relative viability,[17]; first compound 0.01 µM,0.88
same,relative viability,[17]; first compound 0.03162 µM,0.851
same,relative viability,[17]; first compound 0.1 µM,0.792
same,relative viability,[17]; first compound 0.3162 µM,0.972
same,relative viability,[17]; first compound 1 µM,1.01
same,relative viability,[18]; first compound 0.01 µM,1.15
same,relative viability,[18]; first compound 0.03162 µM,1.08
same,relative viability,[18]; first compound 0.1 µM,0.919
same,relative viability,[18]; first compound 0.3162 µM,0.634
same,relative viability,[18]; first compound 1 µM,0.0894
same,relative viability,[19]; first compound 0.01 µM,0.886
same,relative viability,[19]; first compound 0.03162 µM,0.88
same,relative viability,[19]; first compound 0.1 µM,0.829
same,relative viability,[19]; first compound 0.3162 µM,0.883
same,relative viability,[19]; first compound 1 µM,0.785
same,relative viability,[20]; first compound 0.01 µM,1.12
same,relative viability,[20]; first compound 0.03162 µM,1.4
same,relative viability,[20]; first compound 0.1 µM,1.21
same,relative viability,[20]; first compound 0.3162 µM,1.22
same,relative viability,[20]; first compound 1 µM,0.771
